# Assay results taken from US8962631B2 (Vertex Pharmaceuticals Incorporated, priority 2010, dated 2015).
# Molecular target: T1, full-length ATR (Homo sapiens, UniProt Q13535)
# T1 construct: Assays were carried out at 25° C. in the presence of 5 nM full-length ATR
# Experiment: ATR Inhibition Assay (radioactive-phosphate incorporation)
# Type: biochemical
# Details: for inhibition at 15 µM: at 15 uM compound; for Ki: Ki(app), 10 μM ATP, 800 μM target peptide, 5 nM full-length ATR, 25° C.
# Protocol: Compounds were screened for their ability to inhibit ATR kinase using a radioactive-phosphate incorporation assay. Assays were carried out in a mixture of 50 mM Tris/HCl (pH 7.5), 10 mM MgCl2 and 1 mM DTT. Final substrate concentrations were 10 μM [γ-33P]ATP (3 mCi 33P ATP/mmol ATP, Perkin Elmer) and 800 μM target peptide ([…] (SEQ. ID NO: 1)).
# Assays were carried out at 25° C. in the presence of 5 nM full-length ATR. An assay stock buffer solution was prepared containing all of the reagents listed above, with the exception of ATP and the test compound of interest. 13.5 μL of the stock solution was placed in a 96 well plate followed by addition of 2 μL of DMSO stock containing serial dilutions of the test compound (typically starting from a final concentration of 15 μM with 3-fold serial dilutions) in duplicate (final DMSO concentration 7%). The plate was pre-incubated for 10 minutes at 25° C. and the reaction initiated by addition of 15 μL [γ-33P]ATP (final concentration 10 μM).
# The reaction was stopped after 24 hours by the addition of 30 μL 0.1M phosphoric acid containing 2 mM ATP. A multiscreen phosphocellulose filter 96-well plate (Millipore, Cat no. MAPHN0B50) was pretreated with 100 μL 0.2M phosphoric acid prior to the addition of 45 μL of the stopped assay mixture. The plate was washed with […] 0.2M phosphoric acid. After drying, 100 μL Optiphase ‘SuperMix’ liquid scintillation cocktail (Perkin Elmer) was added to the well prior to scintillation counting (1450 Microbeta Liquid Scintillation Counter, Wallac).
# After removing mean background values for all of the data points, Ki(app) data were calculated from non-linear regression analysis of the initial rate data using the Prism software package (GraphPad Prism version 3.0cx for Macintosh, GraphPad Software, San Diego Calif., USA).
# [1] = read-out: percent inhibition against ATR
# T1 sequence (Q13535 whole entry): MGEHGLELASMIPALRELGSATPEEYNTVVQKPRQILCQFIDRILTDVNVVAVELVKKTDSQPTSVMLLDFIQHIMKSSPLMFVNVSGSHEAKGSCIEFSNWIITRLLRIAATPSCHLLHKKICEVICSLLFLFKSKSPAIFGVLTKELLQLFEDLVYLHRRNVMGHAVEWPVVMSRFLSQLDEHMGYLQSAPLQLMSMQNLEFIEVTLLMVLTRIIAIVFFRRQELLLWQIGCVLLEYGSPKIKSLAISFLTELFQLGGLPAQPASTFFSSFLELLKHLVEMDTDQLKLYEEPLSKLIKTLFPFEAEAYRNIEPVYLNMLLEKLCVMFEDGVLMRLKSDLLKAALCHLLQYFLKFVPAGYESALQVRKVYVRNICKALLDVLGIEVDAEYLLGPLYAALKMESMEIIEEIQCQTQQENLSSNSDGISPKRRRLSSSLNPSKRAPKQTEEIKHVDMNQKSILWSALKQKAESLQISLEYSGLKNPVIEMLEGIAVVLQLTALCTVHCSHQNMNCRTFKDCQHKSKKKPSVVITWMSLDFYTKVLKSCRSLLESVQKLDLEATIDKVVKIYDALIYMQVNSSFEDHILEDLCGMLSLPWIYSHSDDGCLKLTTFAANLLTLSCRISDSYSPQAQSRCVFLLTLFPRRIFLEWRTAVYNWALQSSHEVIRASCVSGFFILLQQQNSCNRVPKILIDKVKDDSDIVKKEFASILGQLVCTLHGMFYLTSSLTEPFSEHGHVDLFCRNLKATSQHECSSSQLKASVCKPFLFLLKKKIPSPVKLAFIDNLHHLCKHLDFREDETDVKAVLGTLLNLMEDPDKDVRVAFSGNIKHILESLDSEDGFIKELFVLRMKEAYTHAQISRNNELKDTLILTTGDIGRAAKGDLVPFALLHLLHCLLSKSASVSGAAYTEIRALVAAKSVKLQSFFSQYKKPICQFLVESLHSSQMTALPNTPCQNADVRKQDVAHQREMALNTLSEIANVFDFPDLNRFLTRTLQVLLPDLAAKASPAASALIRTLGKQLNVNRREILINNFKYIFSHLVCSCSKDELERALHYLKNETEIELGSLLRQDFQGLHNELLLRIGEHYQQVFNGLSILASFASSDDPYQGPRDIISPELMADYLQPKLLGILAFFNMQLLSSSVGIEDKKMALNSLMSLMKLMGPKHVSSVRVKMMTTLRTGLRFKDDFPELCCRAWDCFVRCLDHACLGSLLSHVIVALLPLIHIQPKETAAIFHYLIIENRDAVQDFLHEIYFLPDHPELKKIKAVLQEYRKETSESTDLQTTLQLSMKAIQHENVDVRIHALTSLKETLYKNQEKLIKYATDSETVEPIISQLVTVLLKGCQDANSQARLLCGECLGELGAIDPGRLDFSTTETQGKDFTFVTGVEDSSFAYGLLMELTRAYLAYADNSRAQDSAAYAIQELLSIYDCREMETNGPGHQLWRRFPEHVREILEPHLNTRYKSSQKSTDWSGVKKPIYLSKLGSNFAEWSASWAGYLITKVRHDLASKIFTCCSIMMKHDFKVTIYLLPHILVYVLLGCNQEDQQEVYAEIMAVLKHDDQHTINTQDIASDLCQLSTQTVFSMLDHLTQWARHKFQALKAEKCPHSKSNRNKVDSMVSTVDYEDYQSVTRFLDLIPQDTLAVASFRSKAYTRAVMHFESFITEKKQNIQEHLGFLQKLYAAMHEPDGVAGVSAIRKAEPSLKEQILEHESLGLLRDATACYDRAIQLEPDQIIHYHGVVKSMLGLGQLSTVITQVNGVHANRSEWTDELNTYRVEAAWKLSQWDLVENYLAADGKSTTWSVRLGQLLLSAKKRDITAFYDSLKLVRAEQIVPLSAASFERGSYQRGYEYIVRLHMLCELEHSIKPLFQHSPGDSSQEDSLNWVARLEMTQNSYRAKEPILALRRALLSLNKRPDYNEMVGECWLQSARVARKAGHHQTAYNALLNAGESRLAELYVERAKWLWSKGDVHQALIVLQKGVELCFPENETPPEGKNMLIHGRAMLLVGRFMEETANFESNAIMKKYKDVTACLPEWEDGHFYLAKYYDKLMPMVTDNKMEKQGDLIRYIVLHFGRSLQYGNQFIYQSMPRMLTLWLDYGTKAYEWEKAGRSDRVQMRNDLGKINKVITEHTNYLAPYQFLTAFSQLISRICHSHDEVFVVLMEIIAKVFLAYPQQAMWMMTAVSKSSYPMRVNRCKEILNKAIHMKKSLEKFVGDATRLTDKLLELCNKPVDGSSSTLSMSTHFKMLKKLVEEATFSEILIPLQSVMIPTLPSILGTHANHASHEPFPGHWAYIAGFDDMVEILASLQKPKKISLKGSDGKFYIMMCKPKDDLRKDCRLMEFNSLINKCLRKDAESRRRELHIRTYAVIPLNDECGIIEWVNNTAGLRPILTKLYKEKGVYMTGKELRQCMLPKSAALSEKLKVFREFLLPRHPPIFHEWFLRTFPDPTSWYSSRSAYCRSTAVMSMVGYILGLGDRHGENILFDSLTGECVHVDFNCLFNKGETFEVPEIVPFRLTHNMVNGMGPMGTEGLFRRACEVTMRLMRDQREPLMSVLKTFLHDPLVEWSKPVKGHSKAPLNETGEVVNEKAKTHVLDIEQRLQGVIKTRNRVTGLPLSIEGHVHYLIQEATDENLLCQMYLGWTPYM
SMILES,Ki [µM],other results
"Cc1ccc2nc(-c3nc(C(=O)NCC4CCCCC4)cnc3N)[nH]c2c1 [II-63, 5-Amino-N-(cyclohexylmethyl)-6-(6-methyl-1H-benzimidazol-2-yl)pyrazine-2-carboxamide]",,inhibition at 15 µM [1]: 25 to 45%
"Cc1ccc2nc(-c3nc(Oc4ccccc4Cl)cnc3N)[nH]c2c1 [II-21, 5-(2-Chlorophenoxy)-3-(6-methyl-1H-benzimidazol-2-yl)pyrazin-2-amine]",,"inhibition at 30 µM (at 30 uM compound, read-out: percent inhibition against ATR): 40 to 50%"
"Cc1ccc2nc(-c3nc(C#CCNC(N)=O)cnc3N)[nH]c2c1 [II-86, 3-[5-Amino-6-(6-methyl-1H-benzimidazol-2-yl)pyrazin-2-yl]prop-2-ynylurea]",1 to 8,
"Nc1ncc(Nc2ccncc2)nc1C(=O)Nc1ccccc1 [II-6, 3-Amino-N-phenyl-6-(4-pyridylamino)pyrazine-2-carboxamide]",≤ 0.5,
"Cc1ccc2nc(-c3nc(C(=O)NC4CCCC4)cnc3N)[nH]c2c1 [II-72, 5-Amino-N-cyclopentyl-6-(6-methyl-1H-benzimidazol-2-yl)pyrazine-2-carboxamide]",,inhibition at 15 µM [1]: 15 to 24%
"Cc1ccc2nc(-c3nc(C(=O)N(C)c4ccccc4)cnc3N)[nH]c2c1 [II-44, 5-Amino-N-methyl-6-(6-methyl-1H-benzimidazol-2-yl)-N-phenyl-pyrazine-2-carboxamide]",0.5 to 1,
"CCN(CC)C(=O)c1cnc(N)c(-c2nc3ccc(C)cc3[nH]2)n1 [II-46, 5-Amino-N,N-diethyl-6-(6-methyl-1H-benzimidazol-2-yl)pyrazine-2-carboxamide]",1 to 8,
"Nc1ncc(Nc2cccc(F)c2)nc1C(=O)Nc1ccccc1 [II-4, 3-Amino-6-(3-fluoroanilino)-N-phenyl-pyrazine-2-carboxamide]",≤ 0.5,
"Cc1ccc2nc(-c3nc(C#CCN(C)C)cnc3N)[nH]c2c1 [II-84, 5-[3-(Dimethylamino)prop-1-ynyl]-3-(6-methyl-1H-benzimidazol-2-yl)pyrazin-2-amine]",1 to 8,
"Cc1ccc2nc(-c3nc(C(=O)NCC(N)=O)cnc3N)[nH]c2c1 [II-50, 5-Amino-N-(2-amino-2-oxo-ethyl)-6-(6-methyl-1H-benzimidazol-2-yl)pyrazine-2-carboxamide]",1 to 8,
"COc1ccc(Oc2cnc(N)c(-c3nc4ccc(C)cc4[nH]3)n2)cc1 [II-19, 5-(4-Methoxyphenoxy)-3-(6-methyl-1H-benzimidazol-2-yl)pyrazin-2-amine]",,inhibition at 15 µM [1]: 25 to 45%
"Cc1ccc2nc(-c3nc(C(=O)Nc4ccc(N5CCN(C)CC5)nc4)cnc3N)[nH]c2c1 [II-45, 5-Amino-6-(6-methyl-1H-benzimidazol-2-yl)-N-[6-(4-methylpiperazin-1-yl)-3-pyridyl]pyrazine-2-carboxamide]",1 to 8,

# Continued, in another order:
Ki [µM],SMILES,other results
0.5 to 1,"Cc1ccc2nc(-c3nc(Oc4cccnc4)cnc3N)[nH]c2c1 [II-29, 3-(6-Methyl-1H-benzimidazol-2-yl)-5-(3-pyridyloxy)pyrazin-2-amine]",
0.5 to 1,"Cc1ccc2nc(-c3nc(OC4CCOC4)cnc3N)[nH]c2c1 (stereo not shown) [II-32, 3-(6-Methyl-1H-benzimidazol-2-yl)-5-tetrahydrofuran-3-yloxy-pyrazin-2-amine]",
1 to 8,"Cc1ccc2nc(-c3nc(OC4CCCN(C)C4)cnc3N)[nH]c2c1 (stereo not shown) [II-33, 3-(6-Methyl-1H-benzimidazol-2-yl)-5-[(1-methyl-3-piperidyl)oxy]pyrazin-2-amine]",
1 to 8,"Cc1ccc2nc(-c3nc(Oc4c(F)cccc4F)cnc3N)[nH]c2c1 [II-22, 5-(2,6-Difluorophenoxy)-3-(6-methyl-1H-benzimidazol-2-yl)pyrazin-2-amine]",
